Reference: publication PMC5218480 (PLoS ONE, 2017)

Test system: MV-4-11 cells
Assay: Gene expression microarray analysis (Affymetrix PrimeView) and GSEA
Format: cell-based, human
Parameters: RFU PODN (11730768_x_at) / Fold change /veh PODN (11730768_x_at) / RFU LINC00158 (11744669_a_at) / Fold change /veh LINC00158 (11744669_a_at) / RFU DUSP10 (11751237_a_at) / Fold change /veh DUSP10 (11751237_a_at) / RFU ID3 (11757404_x_at) / Fold change /veh ID3 (11757404_x_at) / RFU PLEKHG5 (11737974_s_at) / Fold change /veh PLEKHG5 (11737974_s_at) / RFU LRRC4B (11730491_at) / Fold change /veh LRRC4B (11730491_at) / RFU GIMAP4 (11747438_a_at) / Fold change /veh GIMAP4 (11747438_a_at) / RFU KRT8 (11758183_x_at) / Fold change /veh KRT8 (11758183_x_at) / RFU CNN1 (11734310_a_at) / Fold change /veh CNN1 (11734310_a_at) / RFU VPS37D (11726825_at) / Fold change /veh VPS37D (11726825_at) / RFU C10orf10 (11716522_x_at) / Fold change /veh C10orf10 (11716522_x_at) / RFU KIR2DL2 /// KIR2DL4 /// KIR2DL5A /// KIR2DL5B /// KIR2DS1 /// KIR2DS2 /// KIR2DS3 /// KIR2DS4 /// KIR3DL3 /// KIR3DL3 /// KIR3DS1 (11738374_at) / Fold change /veh KIR2DL2 /// KIR2DL4 /// KIR2DL5A /// KIR2DL5B /// KIR2DS1 /// KIR2DS2 /// KIR2DS3 /// KIR2DS4 /// KIR3DL3 /// KIR3DL3 /// KIR3DS1 (11738374_at) / RFU C1QL1 (11718748_at) / Fold change /veh C1QL1 (11718748_at) / RFU TMPRSS4 (11747572_a_at) / Fold change /veh TMPRSS4 (11747572_a_at) / RFU HAMP (11756126_x_at) / Fold change /veh HAMP (11756126_x_at) / RFU RNFT2 (11725882_a_at) / Fold change /veh RNFT2 (11725882_a_at) / RFU NR4A2 (11747474_a_at) / Fold change /veh NR4A2 (11747474_a_at) / RFU ABCC12 (11746883_a_at) / Fold change /veh ABCC12 (11746883_a_at) / RFU TMEM136 (11760407_x_at) / Fold change /veh TMEM136 (11760407_x_at) / RFU CLDN22 /// WWC2 (11732394_at) / Fold change /veh CLDN22 /// WWC2 (11732394_at) / RFU HLA-DPB1 (11760878_x_at) / Fold change /veh HLA-DPB1 (11760878_x_at) / RFU SPINT1 (11716480_a_at) / Fold change /veh SPINT1 (11716480_a_at) / RFU GAP43 (11754022_s_at) / Fold change /veh GAP43 (11754022_s_at) / RFU A4GNT (11735810_at) / Fold change /veh A4GNT (11735810_at) / RFU PRB3 (11715151_x_at) / Fold change /veh PRB3 (11715151_x_at) / RFU TUBB4B (11761932_at) / Fold change /veh TUBB4B (11761932_at) / RFU CAPN14 (11732068_a_at) / Fold change /veh CAPN14 (11732068_a_at) / RFU TMCC2 (11721928_a_at) / Fold change /veh TMCC2 (11721928_a_at) / RFU IRGQ (11745062_a_at) / Fold change /veh IRGQ (11745062_a_at) / RFU FAM174B (11720279_a_at) / Fold change /veh FAM174B (11720279_a_at) / RFU TMPRSS4 (11748680_a_at) / Fold change /veh TMPRSS4 (11748680_a_at) / RFU FAM212B (11763350_a_at) / Fold change /veh FAM212B (11763350_a_at) / RFU PLEKHG5 (11743358_a_at) / Fold change /veh PLEKHG5 (11743358_a_at) / RFU ZSCAN30 (11745921_a_at) / Fold change /veh ZSCAN30 (11745921_a_at) / RFU CMKLR1 (11741424_a_at) / Fold change /veh CMKLR1 (11741424_a_at) / RFU LOC101060620 /// MAPK8IP1 (11723275_at) / Fold change /veh LOC101060620 /// MAPK8IP1 (11723275_at) / RFU SPTSSB (11747773_x_at) / Fold change /veh SPTSSB (11747773_x_at) / RFU PRSS12 (11739890_at) / Fold change /veh PRSS12 (11739890_at) / RFU BIN1 (11741810_x_at) / Fold change /veh BIN1 (11741810_x_at) / RFU WNT11 (11732464_a_at) / Fold change /veh WNT11 (11732464_a_at) / RFU C10orf10 (11716521_a_at) / Fold change /veh C10orf10 (11716521_a_at) / RFU C5orf56 (11738089_at) / Fold change /veh C5orf56 (11738089_at) / RFU CYB561 (11721691_x_at) / Fold change /veh CYB561 (11721691_x_at) / RFU ANKRD19P (11752326_a_at) / Fold change /veh ANKRD19P (11752326_a_at) / RFU OR2T12 /// OR2T33 /// OR2T8 (11738714_s_at) / Fold change /veh OR2T12 /// OR2T33 /// OR2T8 (11738714_s_at) / RFU VCAN (11748164_a_at) / Fold change /veh VCAN (11748164_a_at) / RFU JSRP1 (11732532_at) / Fold change /veh JSRP1 (11732532_at) / RFU KRTAP10-11 (11738290_x_at) / Fold change /veh KRTAP10-11 (11738290_x_at) / RFU MYO3A (11730013_a_at) / Fold change /veh MYO3A (11730013_a_at) / RFU EBF3 (11725865_a_at) / Fold change /veh EBF3 (11725865_a_at) / RFU CAMK2N1 (11719241_x_at) / Fold change /veh CAMK2N1 (11719241_x_at) / RFU C5orf56 (11738088_a_at) / Fold change /veh C5orf56 (11738088_a_at) / RFU OLFML3 (11715873_a_at) / Fold change /veh OLFML3 (11715873_a_at) / RFU LOC100653217 /// NTM (11731650_a_at) / Fold change /veh LOC100653217 /// NTM (11731650_a_at) / RFU MAPK11 (11762145_a_at) / Fold change /veh MAPK11 (11762145_a_at) / RFU FIZ1 (11724087_x_at) / Fold change /veh FIZ1 (11724087_x_at) / RFU OASL (11726364_x_at) / Fold change /veh OASL (11726364_x_at) / RFU SOX15 (11748057_x_at) / Fold change /veh SOX15 (11748057_x_at) / RFU CD79A (11719716_a_at) / Fold change /veh CD79A (11719716_a_at) / RFU HIST1H1D (11736915_at) / Fold change /veh HIST1H1D (11736915_at) / RFU CASKIN2 (11723855_a_at) / Fold change /veh CASKIN2 (11723855_a_at) / RFU LOC730098 (11760151_x_at) / Fold change /veh LOC730098 (11760151_x_at) / RFU OR4N2 (11742367_at) / Fold change /veh OR4N2 (11742367_at) / RFU PRRT2 (11749266_a_at) / Fold change /veh PRRT2 (11749266_a_at) / RFU SNX32 (11753110_a_at) / Fold change /veh SNX32 (11753110_a_at) / RFU CDHR5 (11726645_a_at) / Fold change /veh CDHR5 (11726645_a_at) / RFU RCAN1 (11760418_a_at) / Fold change /veh RCAN1 (11760418_a_at) / RFU FAM167A (11723789_a_at) / Fold change /veh FAM167A (11723789_a_at) / RFU FAM26E (11764081_at) / Fold change /veh FAM26E (11764081_at) / RFU ISYNA1 (11749810_s_at) / Fold change /veh ISYNA1 (11749810_s_at) / RFU ACY1 (11761880_at) / Fold change /veh ACY1 (11761880_at) / RFU 11764098_at / Fold change /veh 11764098_at / RFU SAMD14 (11745864_x_at) / Fold change /veh SAMD14 (11745864_x_at) / RFU NPB (11741838_a_at) / Fold change /veh NPB (11741838_a_at) / RFU TMPRSS6 (11731388_a_at) / Fold change /veh TMPRSS6 (11731388_a_at) / RFU KRTAP10-2 (11738614_at) / Fold change /veh KRTAP10-2 (11738614_at) / RFU ARHGAP8 /// PRR5-ARHGAP8 (11727945_x_at) / Fold change /veh ARHGAP8 /// PRR5-ARHGAP8 (11727945_x_at) / RFU KRTAP5-7 /// NADSYN1 (11734609_at) / Fold change /veh KRTAP5-7 /// NADSYN1 (11734609_at) / RFU RASL12 (11751679_a_at) / Fold change /veh RASL12 (11751679_a_at) / RFU CDKN2B (11736163_a_at) / Fold change /veh CDKN2B (11736163_a_at) / RFU PRF1 (11729649_at) / Fold change /veh PRF1 (11729649_at) / RFU, ZNF638 /// ZNF638-IT1 / Fold change vs veh, ZNF638 /// ZNF638-IT1 / RFU, PANK3 / Fold change vs veh, PANK3 / RFU, SH3YL1 / Fold change vs veh, SH3YL1 / RFU, ZEB2 / Fold change vs veh, ZEB2 / RFU, NRIP1 / Fold change vs veh, NRIP1 / RFU, PTTG1IP / Fold change vs veh, PTTG1IP / RFU, CAPN2 / Fold change vs veh, CAPN2 / RFU, MED14 / Fold change vs veh, MED14 / RFU, SNORA58 / Fold change vs veh, SNORA58 / RFU, C1orf63 / Fold change vs veh, C1orf63 / RFU, LRRFIP1 / Fold change vs veh, LRRFIP1 / RFU, NDUFAF7 / Fold change vs veh, NDUFAF7 / RFU, SLC12A2 / Fold change vs veh, SLC12A2 / RFU, IBTK / Fold change vs veh, IBTK / RFU, ESF1 / Fold change vs veh, ESF1 / Fold change vs veh, TMEM50B / RFU, TAOK1 / Fold change vs veh, TAOK1 / RFU, ACBD3 / Fold change vs veh, ACBD3 / RFU, TMA16 / Fold change vs veh, TMA16 / RFU, RWDD3 / Fold change vs veh, RWDD3 / RFU, BCAT1 / Fold change vs veh, BCAT1 / RFU, EDEM3 / Fold change vs veh, EDEM3 / RFU, TMEM33 / Fold change vs veh, TMEM33 / RFU, WDR75 / Fold change vs veh, WDR75 / RFU, AHCTF1 / Fold change vs veh, AHCTF1 / RFU, TFRC / Fold change vs veh, TFRC / RFU, ZDHHC17 / Fold change vs veh, ZDHHC17 / RFU, NOM1 / Fold change vs veh, NOM1 / RFU, ARL8B / Fold change vs veh, ARL8B / RFU, ZBTB11 / Fold change vs veh, ZBTB11 / RFU, TAMM41 / Fold change vs veh, TAMM41 / RFU, KIAA1704 /// LOC100996395 / Fold change vs veh, KIAA1704 /// LOC100996395 / RFU, ING1 / Fold change vs veh, ING1 / RFU, TRMT61B / Fold change vs veh, TRMT61B / RFU, FUBP3 / Fold change vs veh, FUBP3 / RFU, TP53 / Fold change vs veh, TP53 / RFU, TNKS2 / Fold change vs veh, TNKS2 / RFU, ZFP14 / Fold change vs veh, ZFP14 / RFU, ACTR2 / Fold change vs veh, ACTR2 / RFU, PPP3R1 / Fold change vs veh, PPP3R1 / RFU, PIK3R1 / Fold change vs veh, PIK3R1 / RFU, HNRNPA1 / Fold change vs veh, HNRNPA1 / RFU, RNF170 / Fold change vs veh, RNF170 / RFU, ZNF28 / Fold change vs veh, ZNF28 / RFU, RNGTT / Fold change vs veh, RNGTT / RFU, OGT / Fold change vs veh, OGT / RFU, BRD1 / Fold change vs veh, BRD1 / RFU, MARS / Fold change vs veh, MARS / RFU, ZNF655 / Fold change vs veh, ZNF655 / RFU, FAHD1 / Fold change vs veh, FAHD1 / RFU, BDP1 / Fold change vs veh, BDP1 / RFU, LRRCC1 / Fold change vs veh, LRRCC1 / RFU, ARID1A / Fold change vs veh, ARID1A / RFU, ZNF146 / Fold change vs veh, ZNF146 / RFU, ZNF330 / Fold change vs veh, ZNF330 / RFU, GPN3 / Fold change vs veh, GPN3 / RFU, C9orf123 / Fold change vs veh, C9orf123 / RFU, N4BP2L2 / Fold change vs veh, N4BP2L2 / RFU, ARFIP1 / Fold change vs veh, ARFIP1 / RFU, FAM179B / Fold change vs veh, FAM179B / RFU, BCL10 / Fold change vs veh, BCL10 / RFU, UHRF1BP1L / Fold change vs veh, UHRF1BP1L / RFU, BET1 / Fold change vs veh, BET1 / RFU, CNOT2 / Fold change vs veh, CNOT2 / RFU, ZNF268 / Fold change vs veh, ZNF268 / Fold change vs veh, ZNF507 / RFU, DGCR2 / Fold change vs veh, DGCR2 / RFU, WDSUB1 / Fold change vs veh, WDSUB1 / Fold change vs veh, HSP90B1 /// MIR3652 / RFU, ADSS / Fold change vs veh, ADSS / RFU, GK / Fold change vs veh, GK / RFU, ZNF148 / Fold change vs veh, ZNF148 / RFU, TAF9 / Fold change vs veh, TAF9 / RFU, SLC1A5 / Fold change vs veh, SLC1A5 / RFU, SLMO2 / Fold change vs veh, SLMO2 / RFU, ABCC4 / Fold change vs veh, ABCC4 / RFU, LOC101060439 /// RAP1B / Fold change vs veh, LOC101060439 /// RAP1B / RFU, RFX7 / Fold change vs veh, RFX7 / RFU, GTPBP10 / Fold change vs veh, GTPBP10 / RFU, CNEP1R1 / Fold change vs veh, CNEP1R1 / RFU, BIVM-ERCC5 /// ERCC5 / Fold change vs veh, BIVM-ERCC5 /// ERCC5 / RFU, ILF3 / Fold change vs veh, ILF3 / RFU 11762660_at / Fold change /veh 11762660_at / RFU VCAN (11757783_s_at) / Fold change /veh VCAN (11757783_s_at) / RFU DDX43 (11728927_at) / Fold change /veh DDX43 (11728927_at) / RFU KRT8 (11758188_x_at) / Fold change /veh KRT8 (11758188_x_at) / RFU NKD1 (11759106_at) / Fold change /veh NKD1 (11759106_at) / RFU SRD5A1 (11742802_a_at) / Fold change /veh SRD5A1 (11742802_a_at) / RFU TPSAB1 /// TPSB2 (11721975_s_at) / Fold change /veh TPSAB1 /// TPSB2 (11721975_s_at) / RFU GSTM3 (11746129_a_at) / Fold change /veh GSTM3 (11746129_a_at) / RFU IL23R (11737362_x_at) / Fold change /veh IL23R (11737362_x_at) / RFU TMEM51 (11727254_a_at) / Fold change /veh TMEM51 (11727254_a_at) / RFU PIWIL2 (11732686_x_at) / Fold change /veh PIWIL2 (11732686_x_at) / RFU ORM1 (11744905_x_at) / Fold change /veh ORM1 (11744905_x_at) / RFU CCDC152 (11743942_at) / Fold change /veh CCDC152 (11743942_at) / RFU ECM1 (11717891_a_at) / Fold change /veh ECM1 (11717891_a_at) / RFU IL23R (11748794_a_at) / Fold change /veh IL23R (11748794_a_at) / RFU TNFAIP8L3 (11732012_x_at) / Fold change /veh TNFAIP8L3 (11732012_x_at) / RFU MBOAT4 (11741988_at) / Fold change /veh MBOAT4 (11741988_at) / RFU 11764193_at / Fold change /veh 11764193_at / RFU TMEM53 (11763286_at) / Fold change /veh TMEM53 (11763286_at) / RFU MAGEB2 (11727129_at) / Fold change /veh MAGEB2 (11727129_at) / RFU TMEM200A (11744735_a_at) / Fold change /veh TMEM200A (11744735_a_at) / RFU CCDC152 (11751479_a_at) / Fold change /veh CCDC152 (11751479_a_at) / RFU FAM211A (11726209_a_at) / Fold change /veh FAM211A (11726209_a_at) / RFU RGS16 (11746705_a_at) / Fold change /veh RGS16 (11746705_a_at) / RFU VCAN (11755009_s_at) / Fold change /veh VCAN (11755009_s_at) / RFU RHOB (11743442_s_at) / Fold change /veh RHOB (11743442_s_at) / RFU RGS16 (11720943_a_at) / Fold change /veh RGS16 (11720943_a_at) / RFU RGS16 (11720944_at) / Fold change /veh RGS16 (11720944_at) / RFU, VPS4B / Fold change vs veh, VPS4B / RFU, CREB1 / Fold change vs veh, CREB1 / RFU, DNAJC13 / Fold change vs veh, DNAJC13 / RFU, GNAQ / Fold change vs veh, GNAQ / RFU, CDK5R1 / Fold change vs veh, CDK5R1 / RFU, ZRANB3 / Fold change vs veh, ZRANB3 / RFU, CUL4A / Fold change vs veh, CUL4A / RFU, CCNY / Fold change vs veh, CCNY / RFU, UFL1 / Fold change vs veh, UFL1 / RFU, COG3 / Fold change vs veh, COG3 / RFU, DIAPH2 / Fold change vs veh, DIAPH2 / RFU, SKA2 / Fold change vs veh, SKA2 / RFU, AFF3 / Fold change vs veh, AFF3 / RFU, LMF1 / Fold change vs veh, LMF1 / RFU, IPO11 / Fold change vs veh, IPO11 / RFU, DFFB / Fold change vs veh, DFFB / RFU, FOXP1 / Fold change vs veh, FOXP1 / RFU, CARD8 / Fold change vs veh, CARD8 / RFU, STRN3 / Fold change vs veh, STRN3 / RFU, ADK / Fold change vs veh, ADK / RFU, RASSF2 / Fold change vs veh, RASSF2 / RFU, WIPF1 / Fold change vs veh, WIPF1 / RFU, LARP1B / Fold change vs veh, LARP1B / RFU, RASA1 / Fold change vs veh, RASA1 / RFU, RB1 / Fold change vs veh, RB1 / RFU, PPFIA1 / Fold change vs veh, PPFIA1 / RFU, MAT2A / Fold change vs veh, MAT2A / RFU, CCT5 / Fold change vs veh, CCT5 / RFU, WDR92 / Fold change vs veh, WDR92 / RFU, CUX1 / Fold change vs veh, CUX1 / RFU, TTC7A / Fold change vs veh, TTC7A / RFU, TMEM135 / Fold change vs veh, TMEM135 / RFU, DEPTOR / Fold change vs veh, DEPTOR / RFU, CPM / Fold change vs veh, CPM / RFU, DNAJB6 / Fold change vs veh, DNAJB6 / RFU, CACNA2D3 / Fold change vs veh, CACNA2D3 / RFU, DTX4 / Fold change vs veh, DTX4 / RFU, TFCP2 / Fold change vs veh, TFCP2 / RFU, GMCL1 /// GMCL1P1 / Fold change vs veh, GMCL1 /// GMCL1P1 / RFU, AEBP2 / Fold change vs veh, AEBP2 / RFU, SNHG1 /// SNORD22 /// SNORD25 /// SNORD26 /// SNORD27 /// SNORD28 /// SNORD29 /// SNORD31 / Fold change vs veh, SNHG1 /// SNORD22 /// SNORD25 /// SNORD26 /// SNORD27 /// SNORD28 /// SNORD29 /// SNORD31 / Fold change (Aza/veh), C12orf56 (ProbeSet 11735607_a_at) / Fold change (ACY-1035/veh), C12orf56 (ProbeSet 11735607_a_at) / Fold change (Aza/veh), FGFR1OP (ProbeSet 11751329_s_at) / Fold change (ACY-1035/veh), FGFR1OP (ProbeSet 11751329_s_at) / Fold change (Aza/veh), VPS36 (ProbeSet 11739960_a_at) / Fold change (ACY-1035/veh), VPS36 (ProbeSet 11739960_a_at) / RFU SYPL1 (11715823_x_at) / Fold change /veh SYPL1 (11715823_x_at) / RFU IGFBP7 (11715501_s_at) / Fold change /veh IGFBP7 (11715501_s_at) / RFU REEP3 (11722064_at) / Fold change /veh REEP3 (11722064_at) / RFU IGLL1 (11728026_x_at) / Fold change /veh IGLL1 (11728026_x_at): dose or concentration left out as unconfirmed
Conditions: ProbeSet 11755159_a_at; LIST D

SMILES: Nc1ccc(-c2cccs2)cc1NC(=O)c1ccc2c(c1)cc(C1CC1)n2CCN1CCOCC1 [ACY-1035]
- Fold change vs veh, COG3: 0.96
